Laboratory results taken from patent publication US20250230193A1, “CYCLIC COMPOUND HAVING SELECTIVE KRAS INHIBITORY EFFECT ON HRAS AND NRAS” (CHUGAI SEIYAKU KABUSHIKI KAISHA, priority 2022, published 2025).

How the values were obtained:
[1] = target: GDP-bound NRAS wild-type protein (Homo sapiens, UniProt P01111); assay: Binding to NRAS by surface plasmon resonance (SPR), Single Cycle Kinetics; details: for NRAS/KRAS (ratio of KD value with respect to NRAS to KD value with respect to KRAS): GDP-bound NRAS wild-type vs GDP-bound KRAS wild-type
[2] = target: GDP-bound HRAS wild-type protein (Homo sapiens, UniProt P01112); assay: Binding to HRAS by surface plasmon resonance (SPR), Single Cycle Kinetics; details: for HRAS/KRAS (ratio of KD value with respect to HRAS to KD value with respect to KRAS): GDP-bound HRAS wild-type vs GDP-bound KRAS wild-type
GDP-bound HRAS wild-type protein, sequence (P01112 whole entry): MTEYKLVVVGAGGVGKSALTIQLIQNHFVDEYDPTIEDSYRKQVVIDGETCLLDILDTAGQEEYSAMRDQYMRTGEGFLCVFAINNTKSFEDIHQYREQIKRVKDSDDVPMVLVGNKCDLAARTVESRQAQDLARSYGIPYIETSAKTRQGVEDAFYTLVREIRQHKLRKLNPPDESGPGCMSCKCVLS

GDP-bound NRAS wild-type protein, sequence (P01111 whole entry): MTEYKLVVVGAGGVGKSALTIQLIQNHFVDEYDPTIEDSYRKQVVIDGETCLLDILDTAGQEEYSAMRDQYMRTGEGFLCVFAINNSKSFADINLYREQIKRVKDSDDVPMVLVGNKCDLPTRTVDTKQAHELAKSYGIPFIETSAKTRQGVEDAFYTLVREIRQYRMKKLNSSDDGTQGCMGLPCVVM

## CCCOC[C@H]1C(=O)N[C@@H]([C@@H](C)CC)C(=O)N(C)CC(=O)N(C)[C@H]2C/C=C\CCN(C2=O)[C@@H](Cc2ccc(C(F)(F)F)cc2)C(=O)N(C)CC(=O)N[C@@H](CCc2ccc(Cl)c(Cl)c2)C(=O)N2C[C@H](OCC)C[C@H]2C(=O)NC2(CCC2)C(=O)N(C)[C@@H](C2CCCC2)C(=O)N(C)[C@H](C(=O)N(C)CCC)CC(=O)N1C [PP2830]
[1]; class symbols
  NRAS/KRAS (ratio of KD value with respect to GDP-bound NRAS wild-type protein to KD value with respect to KRAS): A (a compound having 10 or more and less than 20 is denoted as A)
[2]; class symbols
  HRAS/KRAS (ratio of KD value with respect to GDP-bound HRAS wild-type protein to KD value with respect to KRAS): A (a compound having 10 or more and less than 20 is denoted as A)

## C=CC[C@H]1C(=O)N[C@@H]([C@@H](C)CC)C(=O)N(C)CC(=O)N(C)[C@H]2CCCCN(C2=O)[C@@H](Cc2ccc(C(F)(F)F)cc2)C(=O)N(C)CC(=O)N[C@@H](CCc2cc(F)c(C(F)(F)F)c(F)c2)C(=O)N2C[C@H](OCC)C[C@H]2C(=O)NC2(CCC2)C(=O)N(C)[C@@H](C2CCCC2)C(=O)N(C)[C@H](C(=O)N2CCOCC2)CC(=O)N1C [PP0710]
[1]; SPR
  NRAS/KRAS (ratio of KD value with respect to GDP-bound NRAS wild-type protein to KD value with respect to KRAS): C (A compound having a KD ratio of 0.1 or more and less than 3 is denoted as C)
[2]; SPR
  HRAS/KRAS (ratio of KD value with respect to GDP-bound HRAS wild-type protein to KD value with respect to KRAS): B (a compound having 3 or more and less than 10 is denoted as B)

## CCC[C@H]1C(=O)N[C@@H]([C@@H](C)CC)C(=O)N(C)CC(=O)N(C)[C@H]2C/C=C\CCN(C2=O)[C@@H](Cc2ccc(C)cc2)C(=O)N(C)CC(=O)N[C@@H](CCc2ccc(C(F)(F)F)c(Cl)c2)C(=O)N2C[C@H](OCC)C[C@H]2C(=O)NC2(CC(C)(C)C2)C(=O)N(C)[C@@H](CC(C)C)C(=O)N(C)[C@H](C(=O)N(C)C)CC(=O)N1C [PP2224]
[1]; SPR
  NRAS/KRAS (ratio of KD value with respect to NRAS to KD value with respect to KRAS): A (a compound having 10 or more and less than 20 is denoted as A)
[2]; SPR
  HRAS/KRAS (ratio of KD value with respect to HRAS to KD value with respect to KRAS): A (a compound having 10 or more and less than 20 is denoted as A)

## CCO[C@@H]1C[C@H]2C(=O)NC3(CCC3)C(=O)N(C)[C@@H](C3CCCC3)C(=O)N(C)[C@H](C(=O)N3CCOCC3)CC(=O)N(C)[C@@H](COC)C(=O)N[C@@H]([C@@H](C)CC)C(=O)N(C)CC(=O)N(C)[C@H]3CCCCCN(C3=O)[C@@H](Cc3ccc(C(F)(F)F)cc3)C(=O)N(C)CC(=O)N[C@@H](CCc3ccc(C(F)(F)F)c(F)c3)C(=O)N2C1 [PP0848]
[1]; KD ratio, SPR
  NRAS/KRAS (ratio of KD value with respect to NRAS to KD value with respect to KRAS): B (a compound having 3 or more and less than 10 is denoted as B)
[2]; KD ratio, SPR
  HRAS/KRAS (ratio of KD value with respect to HRAS to KD value with respect to KRAS): B (a compound having 3 or more and less than 10 is denoted as B)

## CC[C@H](C)[C@@H]1NC(=O)[C@H](CC(C)C)N(C)C(=O)C[C@@H](C(=O)N2CCOCC2)N(C)C(=O)[C@H](C2CCCC2)N(C)C(=O)C2(CCCC2)NC(=O)[C@@H]2CCCN2C(=O)[C@H](CCc2ccc(C(F)(F)F)c(Cl)c2)NC(=O)CN(C)C(=O)[C@H](Cc2ccc(Cl)cc2)N2CC=CC[C@@H](C2=O)N(C)C(=O)CN(C)C1=O [PP0533]
[1]; SPR
  NRAS/KRAS (ratio of KD value with respect to GDP-bound NRAS wild-type protein to KD value with respect to KRAS): C (A compound having a KD ratio of 0.1 or more and less than 3 is denoted as C)
[2]; SPR
  HRAS/KRAS (ratio of KD value with respect to GDP-bound HRAS wild-type protein to KD value with respect to KRAS): C (A compound having a KD ratio of 0.1 or more and less than 3 is denoted as C)

## CCO[C@@H]1C[C@H]2C(=O)NC3(CCC3)C(=O)N(C)[C@@H](C3CCCC3)C(=O)N(C)[C@H](C(=O)N3CCOCC3)CC(=O)N(C)[C@@H](CC(C)(C)C)C(=O)N[C@@H]([C@@H](C)CC)C(=O)N(C)CC(=O)N(C)[C@H]3CCCCN(C3=O)[C@@H](Cc3ccc(C(F)(F)F)cc3)C(=O)N(C)CC(=O)N[C@@H](CCc3cc(F)c(C(F)(F)F)c(F)c3)C(=O)N2C1 [PP0714]
[1]; SPR
  NRAS/KRAS (ratio of KD value with respect to GDP-bound NRAS wild-type protein to KD value with respect to KRAS): C (A compound having a KD ratio of 0.1 or more and less than 3 is denoted as C)
[2]; SPR
  HRAS/KRAS (ratio of KD value with respect to GDP-bound HRAS wild-type protein to KD value with respect to KRAS): B (a compound having 3 or more and less than 10 is denoted as B)

## CCO[C@@H]1C[C@H]2C(=O)NC3(CCC3)C(=O)N(C)[C@@H](C(CC)CC)C(=O)N(C)[C@H](C(=O)N(C)C)CC(=O)N(C)[C@@H](CC(C)C)C(=O)N[C@@H]([C@@H](C)CC)C(=O)N(C)CC(=O)N(C)[C@H]3C/C=C\CCN(C3=O)[C@@H](Cc3ccc(C(F)(F)F)cc3)C(=O)N(C)CC(=O)N[C@@H](CCc3cc(F)c(C(F)(F)F)c(F)c3)C(=O)N2C1 [PP1201]
[1]; KD ratio, SPR
  NRAS/KRAS (ratio of KD value with respect to NRAS to KD value with respect to KRAS): AA (a compound having 20 or more is denoted as AA)
[2]; KD ratio, SPR
  HRAS/KRAS (ratio of KD value with respect to HRAS to KD value with respect to KRAS): A (a compound having 10 or more and less than 20 is denoted as A)

## CCCN1CC(=O)NC2(CCC2)C(=O)N(C)[C@@H](C2CCCC2)C(=O)N(C)[C@H](C(=O)N(C)C)CC(=O)N(C)[C@@H](CC)C(=O)N[C@@H]([C@@H](C)CC)C(=O)N(C)CC(=O)N(C)[C@H]2C/C=C\CCN(C2=O)[C@@H](Cc2ccc(C(F)(F)F)cc2)C(=O)N(C)CC(=O)N[C@@H](CCc2cc(F)c(C(F)(F)F)c(F)c2)C1=O [PP1141]
[1]; KD ratio, SPR
  NRAS/KRAS (ratio of KD value with respect to NRAS to KD value with respect to KRAS): AA (a compound having 20 or more is denoted as AA)
[2]; KD ratio, SPR
  HRAS/KRAS (ratio of KD value with respect to HRAS to KD value with respect to KRAS): A (a compound having 10 or more and less than 20 is denoted as A)
